Laboratory results as given in PMC5513037, “Examining the influence of specificity ligands and ATP-competitive ligands on the overall effectiveness of bivalent kinase inhibitors” (Proteome Science, 2017).

Assays:
Assay in all cases: KAM-matrix competition in K562 lysate;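 for 0.001 uM KAM: median log10 fold change of treatment over DMSO control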;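 for 0.01 uM KAM: median log10 fold change of treatment over DMSO control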;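 for 0.1 uM KAM: median log10 fold change of treatment over DMSO control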;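 for 1 uM KAM: median log10 fold change of treatment over DMSO control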;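 for 10 uM KAM: median log10 fold change of treatment over DMSO control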
Assay type in all cases: binding
[1] = biological target: T1, CAMKK2 (Homo sapiens, UniProt Q96RR4)
T1 construct: endogenous in cells; host or cells: K562
T1 sequence (Q96RR4 whole entry): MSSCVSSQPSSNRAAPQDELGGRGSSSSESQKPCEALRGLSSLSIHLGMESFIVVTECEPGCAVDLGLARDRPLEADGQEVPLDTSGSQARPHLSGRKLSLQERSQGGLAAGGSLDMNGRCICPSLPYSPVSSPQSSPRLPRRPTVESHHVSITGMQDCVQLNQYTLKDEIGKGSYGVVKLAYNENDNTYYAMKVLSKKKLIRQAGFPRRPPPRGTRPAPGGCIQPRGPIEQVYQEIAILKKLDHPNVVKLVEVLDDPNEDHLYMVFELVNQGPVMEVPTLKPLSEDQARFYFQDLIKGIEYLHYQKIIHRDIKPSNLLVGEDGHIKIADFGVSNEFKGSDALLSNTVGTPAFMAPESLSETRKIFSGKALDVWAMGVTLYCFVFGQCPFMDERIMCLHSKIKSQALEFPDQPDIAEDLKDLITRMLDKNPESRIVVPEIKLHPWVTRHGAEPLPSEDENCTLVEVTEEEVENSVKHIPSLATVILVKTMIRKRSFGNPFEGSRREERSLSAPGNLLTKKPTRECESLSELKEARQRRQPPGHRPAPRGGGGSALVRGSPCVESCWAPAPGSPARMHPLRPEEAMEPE
Experimental: (§1) Supplement 12953_2017_125_MOESM1_ESM.zip/MS_Supp Info.xlsx, sheet "KAM" | column: 10 uM KAM; 1 uM KAM; 0.1 uM KAM; 0.01 uM KAM; 0.001 uM KAM; RB50

[2] = biological target: T2, CDK13 (Homo sapiens, UniProt Q14004)
T2 construct: endogenous in cells; host or cells: K562
T2 sequence (Q14004 whole entry): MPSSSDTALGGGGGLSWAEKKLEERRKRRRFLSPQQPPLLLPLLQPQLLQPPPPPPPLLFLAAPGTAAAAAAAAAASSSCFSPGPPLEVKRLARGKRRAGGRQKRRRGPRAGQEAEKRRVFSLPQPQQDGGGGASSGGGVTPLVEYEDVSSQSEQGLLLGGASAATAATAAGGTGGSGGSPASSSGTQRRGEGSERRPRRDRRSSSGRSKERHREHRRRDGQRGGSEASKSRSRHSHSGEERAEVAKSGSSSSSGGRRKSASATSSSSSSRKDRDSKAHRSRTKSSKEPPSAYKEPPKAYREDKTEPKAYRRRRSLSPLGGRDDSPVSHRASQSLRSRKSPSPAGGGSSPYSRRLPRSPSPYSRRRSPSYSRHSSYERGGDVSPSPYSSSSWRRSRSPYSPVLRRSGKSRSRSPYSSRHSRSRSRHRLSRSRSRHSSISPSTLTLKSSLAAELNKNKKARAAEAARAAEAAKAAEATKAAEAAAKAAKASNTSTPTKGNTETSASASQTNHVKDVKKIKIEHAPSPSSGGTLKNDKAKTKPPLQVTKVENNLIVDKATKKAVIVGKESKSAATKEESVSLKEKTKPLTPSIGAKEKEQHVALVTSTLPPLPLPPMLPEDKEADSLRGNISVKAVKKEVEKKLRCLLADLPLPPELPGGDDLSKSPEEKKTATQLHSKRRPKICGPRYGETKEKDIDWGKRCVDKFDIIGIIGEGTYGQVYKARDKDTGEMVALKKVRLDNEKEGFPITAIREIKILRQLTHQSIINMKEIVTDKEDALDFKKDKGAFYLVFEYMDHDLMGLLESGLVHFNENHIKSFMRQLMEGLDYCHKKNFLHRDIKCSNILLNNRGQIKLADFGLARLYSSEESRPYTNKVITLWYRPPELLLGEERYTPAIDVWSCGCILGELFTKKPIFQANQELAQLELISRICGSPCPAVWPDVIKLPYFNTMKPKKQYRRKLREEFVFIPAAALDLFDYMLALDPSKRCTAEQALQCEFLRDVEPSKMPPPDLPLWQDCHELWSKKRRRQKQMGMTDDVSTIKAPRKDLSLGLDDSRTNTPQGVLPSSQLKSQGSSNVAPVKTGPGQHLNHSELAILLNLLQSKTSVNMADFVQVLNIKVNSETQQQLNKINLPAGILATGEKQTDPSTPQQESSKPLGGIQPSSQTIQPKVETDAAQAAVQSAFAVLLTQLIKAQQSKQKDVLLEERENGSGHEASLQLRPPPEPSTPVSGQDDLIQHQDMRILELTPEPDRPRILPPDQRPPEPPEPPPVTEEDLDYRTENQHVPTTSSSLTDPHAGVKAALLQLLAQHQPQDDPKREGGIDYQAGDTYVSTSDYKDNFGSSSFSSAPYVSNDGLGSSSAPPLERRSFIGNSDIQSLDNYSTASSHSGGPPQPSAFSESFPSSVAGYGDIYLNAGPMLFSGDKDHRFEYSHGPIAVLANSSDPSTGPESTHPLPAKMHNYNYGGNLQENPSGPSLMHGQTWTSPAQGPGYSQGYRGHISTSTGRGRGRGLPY
Experimental: as §1

[3] = biological target: T3, CLK1 (Homo sapiens, UniProt P49759)
T3 construct: endogenous in cells; host or cells: K562
T3 sequence (P49759 whole entry): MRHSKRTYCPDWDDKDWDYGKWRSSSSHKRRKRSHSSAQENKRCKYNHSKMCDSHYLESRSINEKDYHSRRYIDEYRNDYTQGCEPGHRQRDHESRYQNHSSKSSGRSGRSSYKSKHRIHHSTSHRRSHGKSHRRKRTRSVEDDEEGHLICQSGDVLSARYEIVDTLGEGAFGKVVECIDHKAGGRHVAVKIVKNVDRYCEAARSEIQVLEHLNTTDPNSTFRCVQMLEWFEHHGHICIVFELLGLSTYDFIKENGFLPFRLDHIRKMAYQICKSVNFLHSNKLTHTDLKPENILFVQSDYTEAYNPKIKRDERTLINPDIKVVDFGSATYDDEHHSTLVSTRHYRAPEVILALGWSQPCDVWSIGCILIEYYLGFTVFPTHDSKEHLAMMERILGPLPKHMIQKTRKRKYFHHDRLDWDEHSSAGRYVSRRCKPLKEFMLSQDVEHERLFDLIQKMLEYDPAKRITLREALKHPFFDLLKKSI
Experimental: as §1

[4] = biological target: T4, IRAK4 (Homo sapiens, UniProt Q9NWZ3)
T4 construct: endogenous in cells; host or cells: K562
T4 sequence (Q9NWZ3 1-460): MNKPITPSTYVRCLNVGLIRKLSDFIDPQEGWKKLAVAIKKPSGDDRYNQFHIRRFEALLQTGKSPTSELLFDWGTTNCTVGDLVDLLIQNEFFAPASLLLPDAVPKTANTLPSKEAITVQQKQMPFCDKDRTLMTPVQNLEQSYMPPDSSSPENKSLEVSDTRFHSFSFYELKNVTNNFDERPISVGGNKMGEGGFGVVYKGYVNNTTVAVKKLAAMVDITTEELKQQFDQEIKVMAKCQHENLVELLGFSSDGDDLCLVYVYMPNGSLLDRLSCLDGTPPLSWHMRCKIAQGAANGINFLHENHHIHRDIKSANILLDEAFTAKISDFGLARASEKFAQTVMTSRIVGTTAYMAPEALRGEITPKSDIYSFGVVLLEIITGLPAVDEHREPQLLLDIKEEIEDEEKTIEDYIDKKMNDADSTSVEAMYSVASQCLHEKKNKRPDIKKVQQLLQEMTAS
Experimental: as §1

[5] = biological target: T5, MAPK7 (Homo sapiens, UniProt Q13164);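 for 0.001 uM KAM: median log10 fold change of treatment over DMSO control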;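 for 0.01 uM KAM: median log10 fold change of treatment over DMSO control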;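 for 0.1 uM KAM: median log10 fold change of treatment over DMSO control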;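 for 1 uM KAM: median log10 fold change of treatment over DMSO control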;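 for 10 uM KAM: median log10 fold change of treatment over DMSO control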
T5 construct: endogenous in cells; host or cells: K562
Experimental: as §1

[6] = biological target: T6, MAPK8 (Homo sapiens, UniProt P45983)
T6 construct: endogenous in cells; host or cells: K562
T6 sequence (P45983 whole entry): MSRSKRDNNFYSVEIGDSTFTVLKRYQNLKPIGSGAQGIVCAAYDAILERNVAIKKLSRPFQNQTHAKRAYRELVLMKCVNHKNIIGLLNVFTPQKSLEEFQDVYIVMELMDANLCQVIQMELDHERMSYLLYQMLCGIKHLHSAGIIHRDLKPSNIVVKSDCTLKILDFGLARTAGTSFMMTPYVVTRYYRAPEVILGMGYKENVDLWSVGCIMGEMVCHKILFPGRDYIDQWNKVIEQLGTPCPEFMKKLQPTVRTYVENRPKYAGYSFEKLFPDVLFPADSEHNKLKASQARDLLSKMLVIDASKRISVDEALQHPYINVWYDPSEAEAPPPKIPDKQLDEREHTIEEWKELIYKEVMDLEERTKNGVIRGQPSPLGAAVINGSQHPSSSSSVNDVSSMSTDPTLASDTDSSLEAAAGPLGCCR
Experimental: as §1

[7] = biological target: T7, NTRK1 (Homo sapiens, UniProt P04629)
T7 construct: endogenous in cells; host or cells: K562
T7 sequence (P04629 33-796): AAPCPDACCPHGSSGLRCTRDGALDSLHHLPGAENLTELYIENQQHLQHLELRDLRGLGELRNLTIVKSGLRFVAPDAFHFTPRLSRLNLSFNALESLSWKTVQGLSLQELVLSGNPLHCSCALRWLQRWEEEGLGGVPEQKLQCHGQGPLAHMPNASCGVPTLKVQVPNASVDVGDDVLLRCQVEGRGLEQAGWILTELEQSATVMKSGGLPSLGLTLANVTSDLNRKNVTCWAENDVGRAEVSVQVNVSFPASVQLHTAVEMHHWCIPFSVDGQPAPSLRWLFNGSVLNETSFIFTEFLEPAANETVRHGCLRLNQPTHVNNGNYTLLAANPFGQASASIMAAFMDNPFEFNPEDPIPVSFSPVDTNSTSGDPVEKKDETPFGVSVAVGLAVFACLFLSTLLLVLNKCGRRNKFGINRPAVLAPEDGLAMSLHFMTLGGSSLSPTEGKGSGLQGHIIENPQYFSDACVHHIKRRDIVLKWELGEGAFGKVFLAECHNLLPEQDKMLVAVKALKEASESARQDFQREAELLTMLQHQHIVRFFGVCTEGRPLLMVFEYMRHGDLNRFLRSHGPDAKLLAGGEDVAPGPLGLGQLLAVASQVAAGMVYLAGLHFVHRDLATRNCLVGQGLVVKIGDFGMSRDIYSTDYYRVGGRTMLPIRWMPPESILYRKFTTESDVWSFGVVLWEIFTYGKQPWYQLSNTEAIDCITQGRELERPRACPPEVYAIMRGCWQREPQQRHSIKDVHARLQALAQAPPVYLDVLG
Experimental: as §1

[8] = biological target: T8, PKN3 (Homo sapiens, UniProt Q6P5Z2);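 for 0.001 uM KAM: median log10 fold change of treatment over DMSO control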;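 for 0.01 uM KAM: median log10 fold change of treatment over DMSO control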;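 for 0.1 uM KAM: median log10 fold change of treatment over DMSO control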;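 for 1 uM KAM: median log10 fold change of treatment over DMSO control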;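 for 10 uM KAM: median log10 fold change of treatment over DMSO control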
T8 construct: endogenous in cells; host or cells: K562
Experimental: as §1

[9] = biological target: T9, ROCK1 (Homo sapiens, UniProt Q13464);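 for 0.001 uM KAM: median log10 fold change of treatment over DMSO control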;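 for 0.01 uM KAM: median log10 fold change of treatment over DMSO control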;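 for 0.1 uM KAM: median log10 fold change of treatment over DMSO control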;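 for 1 uM KAM: median log10 fold change of treatment over DMSO control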;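 for 10 uM KAM: median log10 fold change of treatment over DMSO control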
T9 construct: endogenous in cells; host or cells: K562
Experimental: as §1

[10] = biological target: T10, SIK3 (Homo sapiens, UniProt Q9Y2K2);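 for 0.001 uM KAM: median log10 fold change of treatment over DMSO control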;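 for 0.01 uM KAM: median log10 fold change of treatment over DMSO control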;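 for 0.1 uM KAM: median log10 fold change of treatment over DMSO control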;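 for 1 uM KAM: median log10 fold change of treatment over DMSO control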;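 for 10 uM KAM: median log10 fold change of treatment over DMSO control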
T10 construct: endogenous in cells; host or cells: K562
T10 sequence (Q9Y2K2 whole entry): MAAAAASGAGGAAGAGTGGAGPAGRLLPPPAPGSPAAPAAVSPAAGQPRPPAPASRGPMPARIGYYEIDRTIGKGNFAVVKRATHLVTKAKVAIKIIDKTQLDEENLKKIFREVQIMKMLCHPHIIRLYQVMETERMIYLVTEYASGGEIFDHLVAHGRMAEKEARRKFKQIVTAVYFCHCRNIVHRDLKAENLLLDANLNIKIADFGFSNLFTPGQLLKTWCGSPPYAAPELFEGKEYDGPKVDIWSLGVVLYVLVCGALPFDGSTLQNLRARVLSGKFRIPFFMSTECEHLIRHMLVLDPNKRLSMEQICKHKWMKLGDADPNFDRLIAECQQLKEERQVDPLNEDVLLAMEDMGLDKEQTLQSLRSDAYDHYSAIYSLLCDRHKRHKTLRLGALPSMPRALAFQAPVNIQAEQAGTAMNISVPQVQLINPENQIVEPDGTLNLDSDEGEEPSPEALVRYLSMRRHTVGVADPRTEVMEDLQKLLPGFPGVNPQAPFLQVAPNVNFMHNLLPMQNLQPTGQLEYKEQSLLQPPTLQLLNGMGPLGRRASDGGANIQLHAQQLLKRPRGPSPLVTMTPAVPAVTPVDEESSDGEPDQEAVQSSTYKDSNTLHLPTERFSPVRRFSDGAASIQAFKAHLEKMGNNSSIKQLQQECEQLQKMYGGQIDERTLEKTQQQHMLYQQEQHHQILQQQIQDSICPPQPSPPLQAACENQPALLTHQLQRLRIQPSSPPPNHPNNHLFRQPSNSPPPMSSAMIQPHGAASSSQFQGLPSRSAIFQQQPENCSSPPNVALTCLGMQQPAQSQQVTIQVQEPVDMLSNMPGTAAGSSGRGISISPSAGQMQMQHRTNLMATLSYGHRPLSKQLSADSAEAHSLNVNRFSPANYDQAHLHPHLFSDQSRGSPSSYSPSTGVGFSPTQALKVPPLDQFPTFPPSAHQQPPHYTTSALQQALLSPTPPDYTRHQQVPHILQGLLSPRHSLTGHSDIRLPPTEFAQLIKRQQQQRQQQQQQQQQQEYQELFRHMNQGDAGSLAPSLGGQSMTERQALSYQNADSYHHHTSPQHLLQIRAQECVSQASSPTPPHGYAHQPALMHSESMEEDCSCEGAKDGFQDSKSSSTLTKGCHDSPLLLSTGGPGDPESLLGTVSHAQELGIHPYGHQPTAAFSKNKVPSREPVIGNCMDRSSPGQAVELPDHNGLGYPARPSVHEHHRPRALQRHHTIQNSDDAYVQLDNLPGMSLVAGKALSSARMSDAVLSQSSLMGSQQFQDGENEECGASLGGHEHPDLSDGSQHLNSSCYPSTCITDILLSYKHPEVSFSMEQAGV
Experimental: as §1

[11] = biological target: T11, STK17A (Homo sapiens, UniProt Q9UEE5)
T11 construct: endogenous in cells; host or cells: K562 cell lysate
T11 sequence (Q9UEE5 1-414): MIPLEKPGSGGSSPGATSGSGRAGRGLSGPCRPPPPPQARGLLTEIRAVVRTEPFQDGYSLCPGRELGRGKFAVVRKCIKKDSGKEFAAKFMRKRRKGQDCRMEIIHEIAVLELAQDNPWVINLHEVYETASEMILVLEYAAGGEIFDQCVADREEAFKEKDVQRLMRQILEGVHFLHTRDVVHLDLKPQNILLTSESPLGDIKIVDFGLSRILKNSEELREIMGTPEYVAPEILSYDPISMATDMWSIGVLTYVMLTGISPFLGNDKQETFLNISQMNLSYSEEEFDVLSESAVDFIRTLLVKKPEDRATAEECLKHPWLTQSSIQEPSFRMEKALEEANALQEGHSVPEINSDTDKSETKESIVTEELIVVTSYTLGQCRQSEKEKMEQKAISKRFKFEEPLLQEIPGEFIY
Experimental: as §1

[12] = biological target: T12, YES1 (Homo sapiens, UniProt P07947)
T12 construct: endogenous in cells; host or cells: K562
Experimental: as §1

[13] = read-out: RB50 (the source's name)
[14] = KAM 0.001-10 uM, read-out: RB50 (the source's name)

N#CCc1ccc(Nc2nc(NCCCN)cc(Nc3cc(C4CC4)[nH]n3)n2)cc1 [KAM]
median Log10 fold change ([1]; 0.001 uM KAM): 0.007982 | median Log10 fold change ([1]; 0.01 uM KAM): -0.006148 | median Log10 fold change ([1]; 0.1 uM KAM): -0.132 | median Log10 fold change ([1]; 1 uM KAM): -0.4329 | median Log10 fold change ([1]; 10 uM KAM): -0.5591 | IC50 [1, 13]: 553 nM | median Log10 fold change ([2]; 0.001 uM KAM): -0.01353 | median Log10 fold change ([2]; 0.01 uM KAM): -0.006338 | median Log10 fold change ([2]; 0.1 uM KAM): -0.0866 | median Log10 fold change ([2]; 1 uM KAM): -0.2891 | median Log10 fold change ([2]; 10 uM KAM): -0.4319 | IC50 [2, 13]: 1480 nM | median Log10 fold change ([3]; 0.001 uM KAM): 0.02063 | median Log10 fold change ([3]; 0.01 uM KAM): -0.05735 | median Log10 fold change ([3]; 0.1 uM KAM): -0.2418 | median Log10 fold change ([3]; 1 uM KAM): -0.3053 | median Log10 fold change ([3]; 10 uM KAM): -0.4001 | IC50 [3, 13]: 858 nM | median Log10 fold change ([4]; 0.001 uM KAM): -0.01083 | median Log10 fold change ([4]; 0.01 uM KAM): -0.003774 | median Log10 fold change ([4]; 0.1 uM KAM): -0.1174 | median Log10 fold change ([4]; 1 uM KAM): -0.3495 | median Log10 fold change ([4]; 10 uM KAM): -0.4574 | IC50 [4, 13]: 922 nM | IC50 [5, 14]: > 10000 nM | 0.001 uM KAM ([5]; relative to 0 uM KAM = 0): -0.02869 | 0.01 uM KAM ([5]; relative to 0 uM KAM = 0): 0.01229 | 0.1 uM KAM ([5]; relative to 0 uM KAM = 0): -0.142 | 1 uM KAM ([5]; relative to 0 uM KAM = 0): -0.1326 | 10 uM KAM ([5]; relative to 0 uM KAM = 0): -0.1898 | median Log10 fold change ([6]; 0.001 uM KAM): -0.03388 | median Log10 fold change ([6]; 0.01 uM KAM): -0.03516 | median Log10 fold change ([6]; 0.1 uM KAM): -0.1302 | median Log10 fold change ([6]; 1 uM KAM): -0.2377 | median Log10 fold change ([6]; 10 uM KAM): -0.3812 | IC50 [6, 13]: 2350 nM | median Log10 fold change ([7]; 0.001 uM KAM): -0.002125 | median Log10 fold change ([7]; 0.01 uM KAM): -0.003481 | median Log10 fold change ([7]; 0.1 uM KAM): -0.123 | median Log10 fold change ([7]; 1 uM KAM): -0.3463 | median Log10 fold change ([7]; 10 uM KAM): -0.5086 | IC50 [7, 13]: 869 nM | IC50 [8, 14]: > 10000 nM | 0.001 uM KAM ([8]; relative to 0 uM KAM = 0): 0.01928 | 0.01 uM KAM ([8]; relative to 0 uM KAM = 0): 0.02728 | 0.1 uM KAM ([8]; relative to 0 uM KAM = 0): -0.02092 | 1 uM KAM ([8]; relative to 0 uM KAM = 0): -0.1078 | 10 uM KAM ([8]; relative to 0 uM KAM = 0): -0.2223 | IC50 [9, 14]: > 10000 nM | 0.001 uM KAM ([9]; relative to 0 uM KAM = 0): -0.0607 | 0.01 uM KAM ([9]; relative to 0 uM KAM = 0): -0.006672 | 0.1 uM KAM ([9]; relative to 0 uM KAM = 0): -0.08063 | 1 uM KAM ([9]; relative to 0 uM KAM = 0): -0.07367 | 10 uM KAM ([9]; relative to 0 uM KAM = 0): -0.1223 | IC50 [10, 14]: > 10000 nM | 0.001 uM KAM ([10]; relative to 0 uM KAM = 0): -0.07223 | 0.01 uM KAM ([10]; relative to 0 uM KAM = 0): -0.0771 | 0.1 uM KAM ([10]; relative to 0 uM KAM = 0): -0.08847 | 1 uM KAM ([10]; relative to 0 uM KAM = 0): -0.01623 | 10 uM KAM ([10]; relative to 0 uM KAM = 0): -0.07209 | median Log10 fold change ([11]; 0.001 uM KAM): -0.02395 | median Log10 fold change ([11]; 0.01 uM KAM): -0.004192 | median Log10 fold change ([11]; 0.1 uM KAM): -0.2117 | median Log10 fold change ([11]; 1 uM KAM): -0.3947 | median Log10 fold change ([11]; 10 uM KAM): -0.5099 | IC50 [11, 13]: 457 nM | median Log10 fold change ([12]; 0.001 uM KAM): 0.00764 | median Log10 fold change ([12]; 0.01 uM KAM): 0.01465 | median Log10 fold change ([12]; 0.1 uM KAM): -0.1546 | median Log10 fold change ([12]; 1 uM KAM): -0.4462 | median Log10 fold change ([12]; 10 uM KAM): -0.6732 | IC50 [12, 13]: 458 nM
